Data: patent publication US20200199170A1, “COMPOUNDS HAVING ANTI-INFLAMMATORY AND ANTI-OXIDANT ACTIVITY” (UNIVERSITÀ DEGLI STUDI DI FERRARA, priority 2015, published 2020)

Experiments:
[1] = test system: cell production of interleukin-1 (IL-1α) in human keratinocytes stimulated with TNF-α; assay: Anti-inflammatory activity: IL-1α production in keratinocytes stimulated with TNF-α; format: cell-based; conditions: human keratinocytes pretreated 24 hours with 10 μM solution, then TNF-α; negative control DMSO; FIG. 1A
Description: (§1) The cells (human keratinocytes acquired from Life Technologies) have been pretreated for 24 hours with 1A or 1B and subsequently stimulated with cytokines, otherwise referred to as Tumor Necrosis Factor, TNF-α, in order to mimic an inflammatory process.
TNF-α induces inflammation in the cells treated, that is to say, the cell production of interleukin-1 (IL-1α).

[2] = test system: IL-1α gene expression in human keratinocytes; assay: Real-time PCR quantification of gene expression in TNF-α stimulated keratinocytes; format: cell-based; conditions: keratinocytes pre-treated with compound, then TNF-α; FIG. 1B
Description: as §1
The cell response has also been set out by means of real-time PCR measurements, which are intended to quantify the gene expression (the production of IL-1α is an activity that is codified by specific genes). In FIG. 1B, the so-called “control” is the response of the non-stimulated cells (absence of inflammatory process), “TNF-α” is the response of the cells stimulated with cytokine, while “1A+TNF-α” and “1B+TNF-α” are the responses obtained with the cells pre-treated with 1A and 1B, respectively.

[3] = Photochemiluminescence antioxidant test (Photochem, luminol); conditions: superoxide radical, FIG. 2
Description: For the study of the antioxidant activity, use was made of a photochemiluminescence test that allows evaluating the antioxidant capacity of the tested molecules with respect to the superoxide radical (O2^−); the latter is photochemically generated by means of UV radiations. The marker used is luminol, a molecule that is capable of emitting chemiluminescence when it is oxidized by free radicals; such emission of light is then measured by means of a suitable instrument (Analityk Jena AG: Photochem®—Antioxidants and Free Radicals). The presence of antioxidant substances in the reaction admixture deactivates the radical species by inhibiting the emission of chemiluminescence. The analysis is very rapid and sensitive. […]
Since the antioxidant activity cannot be measured in absolute terms, the common practice is to compare the activity of a compound with that of molecules having an antioxidant capacity that is already known, such as, for example, tocopherol (otherwise known as vitamin E). By comparing the recorded values with the measurements relating to the standard reference molecules ([…]), the antioxidant capacity of the product being examined is obtained.

neuronal cells = assay: Neuro-protective activity, MTT assay, glutamate-induced death; format: cell-based; conditions: FIG. 3; for neuro-protective activity on the death of neuronal cells caused by glutamate: MTT assay, pre-treatment before glutamate; for viability of the cells: neuronal cells, pre-treatment with compound then glutamate, MTT

SMILES: Cc1ccc(O)c2c1CCC1C3CC[C@](O)(C(=O)CO)[C@@]3(C)CC(=O)[C@@]21O (stereo partly shown) [1A]
- cell production of IL-1α [1]: comparable with that of the negative control
- gene expression (real-time PCR) [2]: absence of gene expression
- moles having the antioxidant activity of 1 mole of ascorbic acid [3]: 1.09 mol
- neuro-protective activity on the death of neuronal cells caused by glutamate (neuronal cells): have a neuro-protective activity
- viability of the cells (neuronal cells): ~80%

SMILES: Cc1ccc(O)c2c1CCC1C3CC[C@](O)(C(O)CO)[C@@]3(C)CC(=O)[C@@]21O (stereo partly shown) [1B]
- cell production of IL-1α [1]: comparable with that of the negative control
- gene expression (real-time PCR) [2]: absence of gene expression
- moles having the antioxidant activity of 1 mole of ascorbic acid [3]: 1.18 mol
- neuro-protective activity on the death of neuronal cells caused by glutamate (neuronal cells): have a neuro-protective activity
- viability of the cells (neuronal cells): ~80%
